Converted amounts (≈) assume the structure as drawn.
How the values were obtained:
[1] = target: Prostaglandin G/H synthase 1 (Homo sapiens, UniProt P23219); experiment: Inhibition of cyclooxygenase-1
[2] = target: Prostaglandin G/H synthase 2 (Homo sapiens, UniProt P35354); experiment: Inhibition of cyclooxygenase-2
KB = experiment: Cytotoxicity against human KB cells; format: functional, cell-based; conditions: Homo sapiens, KB; read-out: ED50 (the source's name)
[3] = Cytotoxicity against human PLC/PRF/5 cells; format: functional; conditions: read-out: ED50 (the source's name)
OVCAR-5 = experiment: Cytotoxicity against human OVCAR5 cells; format: functional, cell-based
OVCAR-8 = experiment: Cytotoxicity against human OVCAR8 cells; format: functional, cell-based
SK-OV-3 = experiment: Cytotoxicity against human SK-OV-3 cells; format: functional, cell-based
ACHN = experiment: Cytotoxicity against human ACHN cells; format: functional, cell-based
PC-3 = experiment: Cytotoxicity against human PC3 cells; format: functional, cell-based; conditions: Homo sapiens, PC-3
A549 = experiment: Cytotoxicity against human A549 cells; format: functional, cell-based; conditions: Homo sapiens, A549
HCT-116 = experiment: Cytotoxicity against human HCT116 cells; format: functional, cell-based
HT-29 = experiment: Cytotoxicity against human HT29 cells; format: functional, cell-based; conditions: Homo sapiens, HT-29
MDA-MB-231 = experiment: Cytotoxicity against human MDA-MB-231 cells; format: functional, cell-based
MCF7 = experiment: Cytotoxicity against human MCF7 cells; format: functional, cell-based; conditions: Homo sapiens, MCF7
SF-268 = experiment: Cytotoxicity against human SF268 cells; format: functional, cell-based; conditions: Homo sapiens, SF-268; read-out: IC50
NCI-H460 = experiment: Cytotoxicity against human NCI-H460 cells; format: functional, cell-based; conditions: Homo sapiens, NCI-H460
DU-145 = experiment: Cytotoxicity against human DU145 cells; format: functional, cell-based; conditions: Homo sapiens, DU-145
NCI-H23 = experiment: Cytotoxicity against human NCI-H23 cells; format: functional, cell-based
HCC 2998 = experiment: Cytotoxicity against human HCC2998 cells; format: functional, cell-based
HCT-15 = experiment: Cytotoxicity against human HCT15 cells; format: functional, cell-based
KM12 = experiment: Cytotoxicity against human KM12 cells; format: functional, cell-based
SF-295 = experiment: Cytotoxicity against human SF295 cells; format: functional, cell-based
SNB-75 = experiment: Cytotoxicity against human SNB75 cells; format: functional, cell-based
U-251 = experiment: Cytotoxicity against human U251 cells; format: functional, cell-based
LOX IMVI = experiment: Cytotoxicity against human LOXI MVI cells; format: functional, cell-based
OVCAR-3 = experiment: Cytotoxicity against human OVCAR-3 cells; format: functional, cell-based
OVCAR-4 = experiment: Cytotoxicity against human OVCAR4 cells; format: functional, cell-based
[4] = Cytotoxicity against human HBC4 cells; format: functional, cell-based
[5] = Cytotoxicity against human BSY1 cells; format: functional, cell-based; conditions: BSY-1
[6] = Cytotoxicity against human HBC5 cells; format: functional, cell-based
NCI-H226 = experiment: Cytotoxicity against human NCI-H226 cells; format: functional, cell-based
NCI-H522 = experiment: Cytotoxicity against human NCI-H522 cells; format: functional, cell-based
DMS-273 = experiment: Cytotoxicity against human DMS273 cells; format: functional, cell-based
DMS-114 = experiment: Cytotoxicity against human DMS114 cells; format: functional, cell-based
St-4 = experiment: Cytotoxicity against human ST4 cells; format: functional, cell-based
[7] = Cytotoxicity against human MKN1 cells; format: functional, cell-based; conditions: MKN-1
MKN-7 = experiment: Cytotoxicity against human MKN7 cells; format: functional, cell-based
MKN-28 = experiment: Cytotoxicity against human MKN28 cells; format: functional, cell-based
MKN-45 = experiment: Cytotoxicity against human MKN45 cells; format: functional, cell-based
MKN-74 = experiment: Cytotoxicity against human MKN74 cells; format: functional, cell-based
[8] = Cytotoxicity against human RXF63IL cells; format: functional, cell-based
SF-539 = experiment: Cytotoxicity against human SF539 cells; format: functional, cell-based
SNB-78 = experiment: Cytotoxicity against human SNB78 cells; format: functional, cell-based
[9] = Cytotoxicity against human Bel-7721 cells; format: functional, cell-based
[10] = Cytotoxicity against human Anip-973 cells; format: functional, cell-based
[11] = target: Sodium-dependent serotonin transporter (Homo sapiens, UniProt P31645); experiment: Inhibition of serotonin transporter
Chain of Sodium-dependent serotonin transporter (P31645 whole entry): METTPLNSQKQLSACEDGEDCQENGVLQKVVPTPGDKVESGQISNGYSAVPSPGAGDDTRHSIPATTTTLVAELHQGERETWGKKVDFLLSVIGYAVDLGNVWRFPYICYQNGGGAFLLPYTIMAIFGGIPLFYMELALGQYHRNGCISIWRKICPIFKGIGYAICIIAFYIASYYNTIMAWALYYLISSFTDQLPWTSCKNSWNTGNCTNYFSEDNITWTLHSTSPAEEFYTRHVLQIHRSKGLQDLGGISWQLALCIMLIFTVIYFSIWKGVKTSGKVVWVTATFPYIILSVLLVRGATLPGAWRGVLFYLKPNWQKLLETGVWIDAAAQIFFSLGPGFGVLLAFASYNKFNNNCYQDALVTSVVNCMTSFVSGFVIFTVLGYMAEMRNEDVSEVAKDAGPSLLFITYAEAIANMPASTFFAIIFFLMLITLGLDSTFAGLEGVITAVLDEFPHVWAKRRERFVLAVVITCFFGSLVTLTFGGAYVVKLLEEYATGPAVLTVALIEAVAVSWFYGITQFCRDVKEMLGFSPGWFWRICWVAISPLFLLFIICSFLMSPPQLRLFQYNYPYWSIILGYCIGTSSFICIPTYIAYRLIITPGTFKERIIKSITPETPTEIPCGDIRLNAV

[12] = target: Sodium-dependent dopamine transporter (Homo sapiens, UniProt Q01959); experiment: Inhibition of dopamine uptake at DAT
Chain of Sodium-dependent dopamine transporter (Q01959 whole entry): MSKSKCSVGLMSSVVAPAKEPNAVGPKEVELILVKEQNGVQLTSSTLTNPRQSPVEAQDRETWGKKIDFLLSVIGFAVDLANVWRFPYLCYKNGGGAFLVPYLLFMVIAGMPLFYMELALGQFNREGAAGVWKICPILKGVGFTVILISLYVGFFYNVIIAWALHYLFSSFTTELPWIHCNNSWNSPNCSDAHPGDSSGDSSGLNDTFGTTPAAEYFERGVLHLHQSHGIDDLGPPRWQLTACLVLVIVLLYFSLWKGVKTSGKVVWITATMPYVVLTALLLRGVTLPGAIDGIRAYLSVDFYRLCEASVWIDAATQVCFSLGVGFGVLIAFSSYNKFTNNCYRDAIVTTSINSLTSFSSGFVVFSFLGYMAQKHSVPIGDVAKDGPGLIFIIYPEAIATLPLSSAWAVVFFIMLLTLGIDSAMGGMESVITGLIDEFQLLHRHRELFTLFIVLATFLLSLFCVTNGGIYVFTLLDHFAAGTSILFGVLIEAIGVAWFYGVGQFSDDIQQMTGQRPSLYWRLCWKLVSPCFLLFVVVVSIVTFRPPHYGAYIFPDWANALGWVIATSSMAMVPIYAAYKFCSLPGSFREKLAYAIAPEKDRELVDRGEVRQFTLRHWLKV

[13] = Inhibition of gamma aminobutyric acid transporter
[14] = Inhibition of L-glutamate transporter
[15] = target: Sodium-dependent noradrenaline transporter (Homo sapiens, UniProt P23975); experiment: Inhibition of noradrenaline transporter
Chain of Sodium-dependent noradrenaline transporter (P23975 whole entry): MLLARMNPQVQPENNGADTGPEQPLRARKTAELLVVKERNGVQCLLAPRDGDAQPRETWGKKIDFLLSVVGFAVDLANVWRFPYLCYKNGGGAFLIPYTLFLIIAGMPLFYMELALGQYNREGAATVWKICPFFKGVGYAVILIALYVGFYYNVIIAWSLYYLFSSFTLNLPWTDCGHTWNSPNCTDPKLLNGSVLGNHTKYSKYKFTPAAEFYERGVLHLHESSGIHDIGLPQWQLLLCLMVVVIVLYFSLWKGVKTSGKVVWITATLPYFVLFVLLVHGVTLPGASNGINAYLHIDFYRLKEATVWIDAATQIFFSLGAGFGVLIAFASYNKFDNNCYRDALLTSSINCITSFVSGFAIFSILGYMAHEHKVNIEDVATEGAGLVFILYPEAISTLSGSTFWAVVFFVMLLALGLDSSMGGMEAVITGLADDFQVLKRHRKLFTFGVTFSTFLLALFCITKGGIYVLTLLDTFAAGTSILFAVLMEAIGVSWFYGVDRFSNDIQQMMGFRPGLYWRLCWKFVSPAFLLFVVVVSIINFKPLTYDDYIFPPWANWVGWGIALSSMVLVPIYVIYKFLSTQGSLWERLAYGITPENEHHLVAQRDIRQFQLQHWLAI

SNU1 = experiment: Cytotoxicity against human SNU1 cells; format: functional, cell-based
SNU-354 = experiment: Cytotoxicity against human SNU354 cells; format: functional, cell-based
[16] = Cytotoxicity against human SNUC4 cells; format: functional, cell-based; conditions: SNU-C4
[17] = Cytotoxicity against mouse sarcoma 180 cells; format: functional, cell-based
[18] = target: Aldo-keto reductase family 1 member B1 (Rattus norvegicus, UniProt P07943); experiment: Inhibition of rat lens aldose reductase
K562 = experiment: Cytotoxicity against human K562 cells at 10 ug/mL; format: functional
Jurkat = experiment: Cytotoxicity against human Jurkat cells at 10 ug/mL; format: functional
[19] = Cytotoxicity against human WM1341 cells at 10 ug/mL; format: functional
HL-60 = experiment: Cytotoxicity against human HL60 cells at 10 ug/mL; format: functional
[20] = Cytotoxicity against human RPM18226 cells at 10 ug/mL; format: functional; conditions: RPMI-8226
[21] = Cytotoxicity against human Hepa59T/VGH cells; format: functional; conditions: HEPA 59T/VGH, read-out: ED50 (the source's name)

Chain of Prostaglandin G/H synthase 2 (P35354 whole entry): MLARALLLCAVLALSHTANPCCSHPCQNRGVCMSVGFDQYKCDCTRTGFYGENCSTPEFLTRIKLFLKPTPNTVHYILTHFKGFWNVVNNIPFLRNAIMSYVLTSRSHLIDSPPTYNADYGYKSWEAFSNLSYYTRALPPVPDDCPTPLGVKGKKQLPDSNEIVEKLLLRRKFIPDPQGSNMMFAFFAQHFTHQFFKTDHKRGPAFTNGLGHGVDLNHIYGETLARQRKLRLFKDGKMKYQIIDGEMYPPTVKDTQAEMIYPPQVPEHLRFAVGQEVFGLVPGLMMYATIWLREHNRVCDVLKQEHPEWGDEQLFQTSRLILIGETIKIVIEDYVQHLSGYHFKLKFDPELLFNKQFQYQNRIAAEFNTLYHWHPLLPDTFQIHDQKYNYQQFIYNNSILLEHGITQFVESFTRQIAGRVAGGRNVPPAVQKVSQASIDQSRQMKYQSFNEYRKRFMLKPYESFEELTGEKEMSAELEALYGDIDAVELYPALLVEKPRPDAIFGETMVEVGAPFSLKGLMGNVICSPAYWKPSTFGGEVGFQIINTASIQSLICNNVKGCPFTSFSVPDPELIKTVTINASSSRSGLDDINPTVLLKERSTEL
Chain of Prostaglandin G/H synthase 1 (P23219 whole entry): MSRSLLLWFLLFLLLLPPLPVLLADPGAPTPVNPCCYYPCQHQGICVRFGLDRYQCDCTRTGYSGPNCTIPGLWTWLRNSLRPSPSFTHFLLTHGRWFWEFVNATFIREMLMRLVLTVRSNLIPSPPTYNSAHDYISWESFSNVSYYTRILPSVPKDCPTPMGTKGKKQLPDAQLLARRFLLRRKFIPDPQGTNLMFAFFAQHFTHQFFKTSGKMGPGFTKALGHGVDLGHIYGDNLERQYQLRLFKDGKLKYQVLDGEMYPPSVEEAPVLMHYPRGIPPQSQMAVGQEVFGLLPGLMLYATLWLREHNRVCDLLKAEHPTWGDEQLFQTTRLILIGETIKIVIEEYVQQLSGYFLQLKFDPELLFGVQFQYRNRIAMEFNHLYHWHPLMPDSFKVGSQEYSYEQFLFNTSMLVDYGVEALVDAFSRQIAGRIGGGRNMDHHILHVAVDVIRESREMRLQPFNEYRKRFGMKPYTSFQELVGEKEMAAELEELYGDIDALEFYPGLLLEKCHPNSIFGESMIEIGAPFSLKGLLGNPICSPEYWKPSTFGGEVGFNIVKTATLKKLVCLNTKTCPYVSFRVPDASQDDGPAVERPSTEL

C=C[C@@H]1[C@@H](O)C[C@@H]2[C@]3(CC[C@]4(C)[C@@H]([C@H](C)CCC(OO)C(=C)C)CC[C@@]24C)C[C@]13CCC(=O)OC (some centres not stated)
IC50 [1]: 43.7 µg | IC50 [2]: 4.7 µg

CC(C)C(C)/C=C/C(C)[C@H]1CC[C@@H]2[C@]1(C)CC[C@H]1[C@]23C=C[C@]2(C[C@@H](O)CC[C@]12C)OO3 (some centres not stated)
EC50 (KB): 9.97 µg/mL (≈ 23.3 µM) | EC50 [3]: 11 µg/mL (≈ 25.6 µM)

C=C(C)[C@@H](C)/C=C/[C@@H](C)[C@H]1CC[C@@H]2[C@]1(C)CC=C1[C@]23C=C[C@]2(C[C@@H](O)CC[C@]12C)OO3
IC50 (OVCAR-5): 0.54 µg/mL (≈ 1.27 µM) | IC50 (OVCAR-8): 0.22 µg/mL (≈ 0.518 µM) | IC50 (SK-OV-3): 0.81 µg/mL (≈ 1.91 µM) | IC50 (ACHN): 0.51 µg/mL (≈ 1.2 µM) | IC50 (PC-3): 0.57 µg/mL (≈ 1.34 µM) | IC50 (A549): 0.96 µg/mL (≈ 2.26 µM) | IC50 (HCT-116): 0.48 µg/mL (≈ 1.13 µM) | IC50 (HT-29): 0.57 µg/mL (≈ 1.34 µM) | IC50 (MDA-MB-231): 1.26 µg/mL (≈ 2.97 µM) | IC50 (MCF7): 0.36 µg/mL (≈ 0.848 µM) | IC50 (SF-268): 1.02 µg/mL (≈ 2.4 µM) | IC50 (NCI-H460): 0.61 µg/mL (≈ 1.44 µM) | IC50 (DU-145): 0.54 µg/mL (≈ 1.27 µM) | IC50 (NCI-H23): 0.54 µg/mL (≈ 1.27 µM) | IC50 (HCC 2998): 0.57 µg/mL (≈ 1.34 µM) | IC50 (HCT-15): 0.75 µg/mL (≈ 1.77 µM) | IC50 (KM12): 0.6 µg/mL (≈ 1.41 µM) | IC50 (SF-295): 0.75 µg/mL (≈ 1.77 µM) | IC50 (SNB-75): 2.16 µg/mL (≈ 5.09 µM) | IC50 (U-251): 0.63 µg/mL (≈ 1.48 µM) | IC50 (LOX IMVI): 0.6 µg/mL (≈ 1.41 µM) | IC50 (OVCAR-3): 0.19 µg/mL (≈ 0.447 µM) | IC50 (OVCAR-4): 0.6 µg/mL (≈ 1.41 µM) | IC50 [4]: 0.85 µg/mL (≈ 2 µM) | IC50 [5]: 0.6 µg/mL (≈ 1.41 µM) | IC50 [6]: 0.96 µg/mL (≈ 2.26 µM) | IC50 (NCI-H226): 0.63 µg/mL (≈ 1.48 µM) | IC50 (NCI-H522): 0.57 µg/mL (≈ 1.34 µM) | IC50 (DMS-273): 0.54 µg/mL (≈ 1.27 µM) | IC50 (DMS-114): 0.48 µg/mL (≈ 1.13 µM) | IC50 (St-4): 0.69 µg/mL (≈ 1.62 µM) | IC50 [7]: 0.42 µg/mL (≈ 0.989 µM) | IC50 (MKN-7): 0.48 µg/mL (≈ 1.13 µM) | IC50 (MKN-28): 0.84 µg/mL (≈ 1.98 µM) | IC50 (MKN-45): 0.54 µg/mL (≈ 1.27 µM) | IC50 (MKN-74): 0.54 µg/mL (≈ 1.27 µM) | IC50 [8]: 0.72 µg/mL (≈ 1.7 µM) | IC50 (SF-539): 0.84 µg/mL (≈ 1.98 µM) | IC50 (SNB-78): 1.17 µg/mL (≈ 2.76 µM)

COC1=CC(=O)c2c(O)c(OC)c3c(c2C1=O)-c1c2c(c(O)c(OC)c1[C@@H](C(C)=O)[C@@](C)(O)C3)C(=O)C=C(OC)C2=O [HYPOCRELLIN D]
IC50 (A549): 8.8 µg/mL (≈ 15.2 µM) | IC50 [9]: 1.8 µg/mL (≈ 3.11 µM) | IC50 [10]: 38.4 µg/mL (≈ 66.4 µM)

CC(C)=CCC[C@]1(C)[C@@H](CC=C(C)C)C[C@@]2(CC=C(C)C)C(=O)[C@@](CC=C(C)C)(CC3=C[C@@H]4[C@@H](C(C)C)CC[C@@](C)(OO)[C@H]4CC3)C(=O)[C@]1(C(=O)C(C)C)C2=O [HYDROPEROXYCADIFORIN]
IC50 [11]: 0.0647 µM | IC50 [12]: 0.0647 µM | IC50 [13]: 0.05 µg/mL (≈ 0.0647 µM) | IC50 [14]: 0.5 µg/mL (≈ 0.647 µM) | IC50 [15]: 0.0647 µM

CC(C)[C@@H](C)/C=C/[C@@H](C)[C@H]1CC[C@@H]2[C@]1(C)CC[C@H]1[C@]23C=C[C@]2(C[C@@H](O)CC[C@]12C)OO3 [ERGOSTEROL PEROXIDE]
IC50 (SNU1): 18.7 µM | IC50 (SNU-354): 158 µM | IC50 [16]: 84.6 µM | IC50 [17]: 74.1 µM | IC50 [18]: 35.9 µM

CC(C)[C@@H](C)/C=C/[C@@H](C)[C@H]1CC[C@@H]2[C@]1(C)CC[C@H]1[C@]23C=C[C@]2(C[C@@H](O[C@@H]4O[C@H](CO)[C@@H](O)[C@H](O)[C@H]4O)CC[C@]12C)OO3
inhibition at 10 µg/mL (K562): 10% | inhibition at 10 µg/mL (Jurkat): 10% | inhibition at 10 µg/mL [19]: 10% | inhibition at 10 µg/mL (HL-60): 10% | inhibition at 10 µg/mL [20]: 10%

CC(C)[C@]12C=C3[C@](C)(O)CC[C@]3(OO1)[C@@H](C)CC2 [PEROXYGIBBEROL]
EC50 [21]: 8.2 µg/mL (≈ 32.5 µM)

Reference: ChEMBL document CHEMBL1149799, “Bioactive peroxides as potential therapeutic agents” (Eur J Med Chem, 2008)
